Positions count from the first letter of the chain named.

What all share (settings): at 100 nM
For experiment [1], the system named is T1, Receptor-type tyrosine-protein kinase FLT3 (Homo sapiens), P36888 [R834Q].
T1 sequence (whole entry): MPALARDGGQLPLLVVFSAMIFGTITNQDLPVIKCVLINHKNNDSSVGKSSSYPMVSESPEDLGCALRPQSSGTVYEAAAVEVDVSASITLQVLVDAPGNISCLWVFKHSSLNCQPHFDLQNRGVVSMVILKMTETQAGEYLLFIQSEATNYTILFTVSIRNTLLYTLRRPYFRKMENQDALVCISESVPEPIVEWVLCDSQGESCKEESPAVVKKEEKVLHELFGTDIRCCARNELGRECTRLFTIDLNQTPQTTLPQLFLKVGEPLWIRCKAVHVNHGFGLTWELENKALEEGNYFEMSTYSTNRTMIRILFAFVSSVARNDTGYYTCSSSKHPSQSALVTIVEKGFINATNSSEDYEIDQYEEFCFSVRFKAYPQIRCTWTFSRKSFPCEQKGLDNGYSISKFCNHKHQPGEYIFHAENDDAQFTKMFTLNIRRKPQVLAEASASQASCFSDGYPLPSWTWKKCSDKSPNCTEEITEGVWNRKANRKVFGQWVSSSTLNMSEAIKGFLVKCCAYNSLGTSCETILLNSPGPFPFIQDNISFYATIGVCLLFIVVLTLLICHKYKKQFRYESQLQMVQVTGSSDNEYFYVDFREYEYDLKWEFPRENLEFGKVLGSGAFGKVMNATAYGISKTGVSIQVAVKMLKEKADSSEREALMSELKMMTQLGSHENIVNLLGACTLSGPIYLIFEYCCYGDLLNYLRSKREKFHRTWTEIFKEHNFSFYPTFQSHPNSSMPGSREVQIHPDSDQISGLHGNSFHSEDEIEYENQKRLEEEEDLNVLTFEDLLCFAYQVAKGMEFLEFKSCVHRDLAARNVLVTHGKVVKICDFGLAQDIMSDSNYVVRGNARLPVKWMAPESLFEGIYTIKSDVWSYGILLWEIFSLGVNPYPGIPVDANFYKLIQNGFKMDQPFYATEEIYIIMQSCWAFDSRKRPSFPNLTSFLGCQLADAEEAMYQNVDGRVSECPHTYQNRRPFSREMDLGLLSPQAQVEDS
Nature of the experiment: (§1) Selectivity interaction (KinomeScan (DiscoverX)) EUB0000695a FLT3.

For experiment [2], the system named is T2, Receptor-type tyrosine-protein kinase FLT3 (Homo sapiens), P36888 [N841I].
T2 sequence (whole entry): T1 sequence (whole entry) with Q834R, N841I
The description is as §1.

Experiment [3] has as its system T3, Receptor-type tyrosine-protein kinase FLT3 (Homo sapiens), P36888 [K663Q].
T3 sequence (whole entry): T1 sequence (whole entry) with K663Q, Q834R
Described as §1.

In the case of `Cc1cc(F)c(C(=O)Nc2cccc(-c3nncn3C(C)C)n2)cc1-n1cnc(C2CC2)c1`, the % of control in experiment [1] turned out to be 100%; in experiment [2], 93%; in experiment [3] it was 97%.

(Values after ChEMBL document CHEMBL5465560, “Selectivity Literature for EUbOPEN Chemogenomic Library” (2024).)
